One compound from publication doi:10.1101/2024.08.13.607785v1 (biorxiv, 2024) can be followed below.

Holding throughout (parameters): species or system mixed lysate of K562, MV4-11, THP-1, NCI-H1155
Experiment [1] has as its target Ephrin type-A receptor 1 ; EPHA1 ; P21709 (Homo sapiens, UniProt P21709). Particulars: DIA-MS residual binding; binder.
In experiment [2] the target is Activated CDC42 kinase 1 ; TNK2 ; Q07912 (Homo sapiens, UniProt Q07912). Particulars: DIA-MS residual binding; binder.
Experiment [3] has as its target Mitogen-activated protein kinase kinase kinase 4 ; MAP3K4 ; Q9Y6R4 (Homo sapiens, UniProt Q9Y6R4). Particulars: binder.
Experiment [4] deals with T1, Dual specificity mitogen-activated protein kinase kinase 5 ; MAP2K5 ; Q13163 (Homo sapiens, UniProt Q13163).
T1 sequence (Q13163 1-448): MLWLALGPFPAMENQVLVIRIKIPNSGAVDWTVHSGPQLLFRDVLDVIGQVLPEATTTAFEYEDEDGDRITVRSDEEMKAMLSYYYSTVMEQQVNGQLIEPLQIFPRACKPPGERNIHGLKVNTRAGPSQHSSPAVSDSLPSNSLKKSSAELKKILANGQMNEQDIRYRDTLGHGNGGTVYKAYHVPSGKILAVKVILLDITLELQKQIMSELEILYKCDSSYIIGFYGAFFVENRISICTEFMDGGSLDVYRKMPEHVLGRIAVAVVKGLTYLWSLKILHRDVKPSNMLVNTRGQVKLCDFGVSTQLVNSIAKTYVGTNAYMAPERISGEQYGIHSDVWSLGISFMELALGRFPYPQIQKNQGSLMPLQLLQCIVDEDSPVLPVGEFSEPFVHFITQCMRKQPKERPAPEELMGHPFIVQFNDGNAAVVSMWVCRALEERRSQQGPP
Particulars: DIA-MS residual binding; binder.

For experiment [5], the target named is Epithelial discoidin domain-containing receptor 1 ; DDR1 ; Q08345 (Homo sapiens, UniProt Q08345). Particulars: binder.
In experiment [6] the target is Isoform 4 of Serine/threonine-protein kinase SIK3 ; SIK3-8 ; Q9Y2K2-8 (Homo sapiens, UniProt Q9Y2K2). Particulars: DIA-MS residual binding; binder.
Experiment [7] has as its target LIM domain kinase 2 ; LIMK2 ; P53671 (Homo sapiens, UniProt P53671). Particulars: DIA-MS residual binding; binder.
Experiment [8] concerns the target Activin receptor type-1B ; ACVR1B ; P36896 (Homo sapiens, UniProt P36896). Particulars: DIA-MS residual binding; binder.
In experiment [9] the target is Tyrosine-protein kinase Yes ; YES1 ; P07947 (Homo sapiens, UniProt P07947). Particulars: binder.
In experiment [10] the target is Tyrosine-protein kinase Fgr ; FGR ; P09769 (Homo sapiens, UniProt P09769). Particulars: binder.
Experiment [11] concerns the target Tyrosine-protein kinase Fyn ; FYN-2 ; P06241 (Homo sapiens, UniProt P06241). Particulars: DIA-MS residual binding; binder.
The target in experiment [12] is Casein kinase I isoform gamma-2 ; CSNK1G2 ; P78368 (Homo sapiens, UniProt P78368). Particulars: DIA-MS residual binding; binder.
In experiment [13] the target is Receptor-interacting serine/threonine-protein kinase 2 ; RIPK2 ; O43353 (Homo sapiens, UniProt O43353). Particulars: DIA-MS residual binding; binder.

Sequence of Tyrosine-protein kinase Fgr ; FGR ; P09769 (P09769 whole entry): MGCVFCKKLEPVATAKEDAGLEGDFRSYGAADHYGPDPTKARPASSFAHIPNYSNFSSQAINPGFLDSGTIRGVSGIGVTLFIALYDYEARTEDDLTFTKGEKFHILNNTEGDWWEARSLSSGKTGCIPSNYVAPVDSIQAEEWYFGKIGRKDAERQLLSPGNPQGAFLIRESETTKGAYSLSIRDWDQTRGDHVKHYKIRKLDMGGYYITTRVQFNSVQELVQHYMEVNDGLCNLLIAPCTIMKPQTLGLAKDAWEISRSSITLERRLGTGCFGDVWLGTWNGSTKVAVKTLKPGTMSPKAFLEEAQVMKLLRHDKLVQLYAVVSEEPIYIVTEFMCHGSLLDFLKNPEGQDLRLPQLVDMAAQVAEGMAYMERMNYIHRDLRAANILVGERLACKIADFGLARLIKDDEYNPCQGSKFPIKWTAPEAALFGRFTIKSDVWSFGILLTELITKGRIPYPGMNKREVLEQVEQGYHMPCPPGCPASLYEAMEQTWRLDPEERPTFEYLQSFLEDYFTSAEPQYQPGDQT
Sequence of LIM domain kinase 2 ; LIMK2 ; P53671 (P53671 whole entry, the tested form may be a part): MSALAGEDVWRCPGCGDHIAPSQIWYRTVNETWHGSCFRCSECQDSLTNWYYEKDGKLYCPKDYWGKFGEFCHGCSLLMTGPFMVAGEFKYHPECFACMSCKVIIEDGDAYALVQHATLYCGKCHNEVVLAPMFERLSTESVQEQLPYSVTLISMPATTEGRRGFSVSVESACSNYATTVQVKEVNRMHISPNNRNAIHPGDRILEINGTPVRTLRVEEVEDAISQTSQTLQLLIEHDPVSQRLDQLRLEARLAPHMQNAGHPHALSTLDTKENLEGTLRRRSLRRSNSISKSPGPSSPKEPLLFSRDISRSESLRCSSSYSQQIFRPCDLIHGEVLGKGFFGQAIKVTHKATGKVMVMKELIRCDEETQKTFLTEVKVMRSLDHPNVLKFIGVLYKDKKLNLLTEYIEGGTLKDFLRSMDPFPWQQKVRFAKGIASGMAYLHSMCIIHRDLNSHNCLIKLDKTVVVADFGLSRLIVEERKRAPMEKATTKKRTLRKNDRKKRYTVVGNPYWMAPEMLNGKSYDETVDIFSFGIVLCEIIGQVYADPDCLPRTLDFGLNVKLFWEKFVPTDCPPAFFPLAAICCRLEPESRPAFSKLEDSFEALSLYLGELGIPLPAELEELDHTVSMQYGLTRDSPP
Sequence of Mitogen-activated protein kinase kinase kinase 4 ; MAP3K4 ; Q9Y6R4 (Q9Y6R4 whole entry): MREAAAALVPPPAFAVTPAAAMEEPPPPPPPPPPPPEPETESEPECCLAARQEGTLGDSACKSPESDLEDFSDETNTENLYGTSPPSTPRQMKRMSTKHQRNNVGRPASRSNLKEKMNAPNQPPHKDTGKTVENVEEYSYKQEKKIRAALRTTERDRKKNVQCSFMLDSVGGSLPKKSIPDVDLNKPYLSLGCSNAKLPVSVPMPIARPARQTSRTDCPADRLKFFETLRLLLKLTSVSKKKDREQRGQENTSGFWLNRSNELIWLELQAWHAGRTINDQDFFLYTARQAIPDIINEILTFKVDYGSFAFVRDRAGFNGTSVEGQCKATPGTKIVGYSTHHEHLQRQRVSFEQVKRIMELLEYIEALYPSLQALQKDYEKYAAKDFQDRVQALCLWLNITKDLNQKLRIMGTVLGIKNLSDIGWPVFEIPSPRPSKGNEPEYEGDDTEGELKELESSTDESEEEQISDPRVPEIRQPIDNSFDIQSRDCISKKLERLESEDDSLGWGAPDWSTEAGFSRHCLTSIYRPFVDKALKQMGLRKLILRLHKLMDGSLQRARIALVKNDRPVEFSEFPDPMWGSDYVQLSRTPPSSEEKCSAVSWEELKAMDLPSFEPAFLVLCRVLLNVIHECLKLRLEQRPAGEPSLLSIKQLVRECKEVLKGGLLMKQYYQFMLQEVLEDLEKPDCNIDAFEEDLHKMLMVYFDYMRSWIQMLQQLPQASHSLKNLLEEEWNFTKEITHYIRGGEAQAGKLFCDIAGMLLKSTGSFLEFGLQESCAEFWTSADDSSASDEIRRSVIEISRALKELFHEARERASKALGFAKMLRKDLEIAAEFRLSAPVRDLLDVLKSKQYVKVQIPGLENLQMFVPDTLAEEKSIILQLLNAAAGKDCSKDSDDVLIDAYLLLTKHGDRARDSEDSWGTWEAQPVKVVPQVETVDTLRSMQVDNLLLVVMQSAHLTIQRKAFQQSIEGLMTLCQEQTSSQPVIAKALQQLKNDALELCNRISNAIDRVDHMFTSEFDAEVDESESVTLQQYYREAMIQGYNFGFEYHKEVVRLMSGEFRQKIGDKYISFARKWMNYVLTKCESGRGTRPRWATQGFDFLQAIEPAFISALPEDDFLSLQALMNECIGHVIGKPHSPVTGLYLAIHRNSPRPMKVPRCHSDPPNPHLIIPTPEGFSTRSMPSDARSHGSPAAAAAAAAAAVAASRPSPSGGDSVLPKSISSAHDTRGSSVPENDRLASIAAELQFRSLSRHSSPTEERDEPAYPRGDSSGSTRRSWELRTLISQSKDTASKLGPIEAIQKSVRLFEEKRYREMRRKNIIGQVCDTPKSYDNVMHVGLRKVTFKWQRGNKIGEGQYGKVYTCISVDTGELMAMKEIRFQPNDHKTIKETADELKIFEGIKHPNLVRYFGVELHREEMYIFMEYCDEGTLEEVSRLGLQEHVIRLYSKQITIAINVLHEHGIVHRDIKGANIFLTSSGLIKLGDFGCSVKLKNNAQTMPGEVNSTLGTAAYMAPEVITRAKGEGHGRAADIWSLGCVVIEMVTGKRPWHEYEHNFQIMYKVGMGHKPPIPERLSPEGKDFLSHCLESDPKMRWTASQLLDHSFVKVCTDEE
Sequence of Activin receptor type-1B ; ACVR1B ; P36896 (P36896 whole entry): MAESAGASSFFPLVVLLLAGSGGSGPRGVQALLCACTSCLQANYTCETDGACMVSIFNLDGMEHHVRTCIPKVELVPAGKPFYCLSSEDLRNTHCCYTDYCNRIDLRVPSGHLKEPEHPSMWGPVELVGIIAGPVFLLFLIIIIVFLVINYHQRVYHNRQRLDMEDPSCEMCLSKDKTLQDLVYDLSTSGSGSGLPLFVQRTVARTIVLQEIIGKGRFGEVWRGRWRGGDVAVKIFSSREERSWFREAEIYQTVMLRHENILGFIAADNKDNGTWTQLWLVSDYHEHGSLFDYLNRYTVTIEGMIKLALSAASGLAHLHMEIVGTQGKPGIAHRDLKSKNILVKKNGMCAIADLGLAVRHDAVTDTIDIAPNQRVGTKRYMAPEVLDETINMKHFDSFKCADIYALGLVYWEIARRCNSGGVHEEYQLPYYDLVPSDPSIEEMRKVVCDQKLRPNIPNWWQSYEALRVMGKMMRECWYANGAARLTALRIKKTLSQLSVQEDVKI
Sequence of Isoform 4 of Serine/threonine-protein kinase SIK3 ; SIK3-8 ; Q9Y2K2-8 (Q9Y2K2 whole entry, the tested form may be a part, canonical isoform, one chain of several): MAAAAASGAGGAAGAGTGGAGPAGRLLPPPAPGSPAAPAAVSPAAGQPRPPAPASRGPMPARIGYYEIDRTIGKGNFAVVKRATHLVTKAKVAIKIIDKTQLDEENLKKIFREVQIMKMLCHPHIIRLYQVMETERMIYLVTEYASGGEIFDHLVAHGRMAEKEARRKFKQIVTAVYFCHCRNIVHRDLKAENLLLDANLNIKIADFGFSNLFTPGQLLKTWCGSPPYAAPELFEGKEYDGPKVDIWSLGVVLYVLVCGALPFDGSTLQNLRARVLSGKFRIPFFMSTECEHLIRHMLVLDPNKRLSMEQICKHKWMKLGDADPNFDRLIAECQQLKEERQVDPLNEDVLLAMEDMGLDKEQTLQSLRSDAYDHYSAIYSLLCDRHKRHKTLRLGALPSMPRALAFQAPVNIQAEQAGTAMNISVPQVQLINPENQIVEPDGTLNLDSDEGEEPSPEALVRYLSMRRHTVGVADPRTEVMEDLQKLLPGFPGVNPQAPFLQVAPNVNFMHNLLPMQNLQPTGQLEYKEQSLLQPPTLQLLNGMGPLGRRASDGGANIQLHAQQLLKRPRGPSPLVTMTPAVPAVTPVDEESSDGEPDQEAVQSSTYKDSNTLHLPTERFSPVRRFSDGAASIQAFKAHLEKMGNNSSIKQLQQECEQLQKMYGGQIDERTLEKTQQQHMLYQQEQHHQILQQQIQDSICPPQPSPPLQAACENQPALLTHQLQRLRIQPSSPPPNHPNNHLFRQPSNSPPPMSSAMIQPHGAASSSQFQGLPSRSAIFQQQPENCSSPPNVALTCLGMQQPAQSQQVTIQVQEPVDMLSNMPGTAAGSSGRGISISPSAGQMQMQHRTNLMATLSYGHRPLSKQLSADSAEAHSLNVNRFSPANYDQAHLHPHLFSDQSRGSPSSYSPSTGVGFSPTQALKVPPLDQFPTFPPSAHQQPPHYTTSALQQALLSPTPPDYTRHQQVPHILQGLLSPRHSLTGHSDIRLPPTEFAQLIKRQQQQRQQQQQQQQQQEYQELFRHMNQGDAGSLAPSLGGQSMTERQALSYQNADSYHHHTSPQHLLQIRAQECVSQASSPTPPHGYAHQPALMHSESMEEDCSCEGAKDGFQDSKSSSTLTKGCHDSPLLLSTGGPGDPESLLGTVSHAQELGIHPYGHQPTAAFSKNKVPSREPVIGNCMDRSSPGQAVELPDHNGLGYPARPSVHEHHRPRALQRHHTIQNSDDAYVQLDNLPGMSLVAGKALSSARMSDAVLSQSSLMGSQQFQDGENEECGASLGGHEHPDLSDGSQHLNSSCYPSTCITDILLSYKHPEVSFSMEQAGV
Sequence of Casein kinase I isoform gamma-2 ; CSNK1G2 ; P78368 (P78368 whole entry, canonical isoform): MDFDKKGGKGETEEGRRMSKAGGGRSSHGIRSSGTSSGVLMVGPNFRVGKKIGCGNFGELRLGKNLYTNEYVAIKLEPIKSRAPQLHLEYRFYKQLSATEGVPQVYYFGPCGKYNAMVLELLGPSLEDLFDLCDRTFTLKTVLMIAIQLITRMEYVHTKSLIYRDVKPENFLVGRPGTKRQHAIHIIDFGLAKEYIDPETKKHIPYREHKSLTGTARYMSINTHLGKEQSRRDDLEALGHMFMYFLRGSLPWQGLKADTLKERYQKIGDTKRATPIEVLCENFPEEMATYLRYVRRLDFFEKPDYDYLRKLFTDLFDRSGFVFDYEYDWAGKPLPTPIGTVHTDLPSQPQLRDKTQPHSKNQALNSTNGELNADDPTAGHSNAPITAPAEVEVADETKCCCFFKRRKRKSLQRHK

With `Cc1nc(Nc2ncc(C(=O)Nc3c(C)cccc3Cl)s2)cc(N2CCN(CCO)CC2)n1` [dasatinib], the “DIA-MS / % Intensity (30 µM/DMSO)” value in [1] came to 39.55%; in experiment [2] it was 2.81%; in experiment [3] it was 31.25%; in experiment [4], 35.82%; in experiment [5], 2.942%; in experiment [6] it was 10.64%. Moreover, the “DIA-MS / % Intensity (30 µM/DMSO)” value in experiment [7] was determined as 12.29%; in experiment [8], 38.22%; in experiment [9], 2.565%; in experiment [10], 0.4999%; in [11] it was 2.543%; in experiment [12], 45.01%. The “DIA-MS / % Intensity (30 µM/DMSO)” value in [13] was determined as 2.357%.
